Data published in patent US20150368296A1, “Method for preventing or treating heart diseases by using a composition containing an isolated peptide” (Tunghai University, priority 2014, published 2015).

Tests used:
Format in all cases: in vivo
Bcl-2 protein = experiment: Western blot of Bcl-2 in heart tissue of high-fat diet mice; conditions: high-fat diet C57BL/6 mice, 5, 10 and 25 mg/kg/day intraperitoneally (groups 3 to 5) vs group 2 (high-fat diet, saline); relative to tubulin
Protocol: (§1) The male C57BL/6 mice at the age of 6 weeks were divided into 5 groups for 8 mice in each group. […]
(§2) Protein concentration of the extract was determined by Lowry's protein assay method. […]
(§3) The protein extraction of the mice heart tissues from the each group in example 2 were processed by the western blot method in example 3 to observe the expressions of related apoptosis regulatory proteins in the mice heart tissues from the each group. The results were shown at FIGS. 2 and 3, wherein the tubulin was used for an internal control in FIG. 2 and the expression levels of related apoptosis regulatory proteins were calculated basing on the expression level of tubulin in each figure of FIG. 3.

cytochrome C = experiment: Western blot of cytochrome C in heart tissue of high-fat diet mice; conditions: high-fat diet C57BL/6 mice, 5, 10 and 25 mg/kg/day intraperitoneally (groups 3 to 5) vs group 2 (high-fat diet, saline); relative to tubulin
Protocol: as §1, §2, §3

caspase-3 = experiment: Western blot of activated caspase-3 in heart tissue of high-fat diet mice; conditions: high-fat diet C57BL/6 mice, 5, 10 and 25 mg/kg/day intraperitoneally (groups 3 to 5) vs group 2 (high-fat diet, saline); relative to tubulin
Protocol: as §1, §2, §3

[1] = tested on: nuclear factor of activated T-cells C3 (NFTA-C3); experiment: Western blot of NFTA-C3 in heart tissue of high-fat diet mice; conditions: high-fat diet C57BL/6 mice, 5, 10 and 25 mg/kg/day intraperitoneally (groups 3 to 5) vs group 2 (high-fat diet, saline); relative to tubulin
Protocol: as §1, §2
(§4) The protein extraction of the mice heart tissues from the each group in example 2 were processed by the western blot method in example 3 to observe the expressions of nuclear factor of activated T-cells C3 (NFTA-C3) and calcineurin in the mice heart tissues from the each group. The results were shown at FIGS. 4 and 5, wherein the tubulin was used for an internal control in FIG. 4 and the expression levels of NFTA-C3 and calcineurin were calculated basing on the expression level of tubulin in each figure of FIG. 5.

calcineurin = experiment: Western blot of calcineurin in heart tissue of high-fat diet mice; conditions: high-fat diet C57BL/6 mice, 5, 10 and 25 mg/kg/day intraperitoneally (groups 3 to 5) vs group 2 (high-fat diet, saline); relative to tubulin
Protocol: as §1, §2, §4

STAT-3 = experiment: Western blot of STAT-3 in heart tissue of high-fat diet mice; conditions: high-fat diet C57BL/6 mice, 5, 10 and 25 mg/kg/day intraperitoneally (groups 3 to 5) vs group 2 (high-fat diet, saline); relative to tubulin
Protocol: as §1, §2
(§5) The protein extraction of the mice heart tissues from the each group in example 2 were processed by the western blot method in example 3 to observe the expressions of the related signal transduction proteins of heart hypertrophy including: STAT-3, IL-6, MEK-5 and ERK-5. The results were shown at FIGS. 6 and 7, wherein the tubulin was used for an internal control in FIG. 6 and the expression levels of the related signal transduction proteins of heart hypertrophy in the mice heart tissues from each group was calculated basing on the expression level of tubulin in FIG. 7.

IL-6 = experiment: Western blot of IL-6 in heart tissue of high-fat diet mice; conditions: high-fat diet C57BL/6 mice, 5, 10 and 25 mg/kg/day intraperitoneally (groups 3 to 5) vs group 2 (high-fat diet, saline); relative to tubulin
Protocol: as §1, §2, §5

MEK-5 = experiment: Western blot of MEK-5 in heart tissue of high-fat diet mice; conditions: high-fat diet C57BL/6 mice, 5, 10 and 25 mg/kg/day intraperitoneally (groups 3 to 5) vs group 2 (high-fat diet, saline); relative to tubulin
Protocol: as §1, §2, §5

ERK-5 = experiment: Western blot of ERK-5 in heart tissue of high-fat diet mice; conditions: high-fat diet C57BL/6 mice, 5, 10 and 25 mg/kg/day intraperitoneally (groups 3 to 5) vs group 2 (high-fat diet, saline); relative to tubulin
Protocol: as §1, §2, §5

p38α protein = experiment: Western blot of p38α protein in heart tissue of high-fat diet mice; conditions: high-fat diet C57BL/6 mice, 5, 10 and 25 mg/kg/day intraperitoneally (groups 3 to 5) vs group 2 (high-fat diet, saline); relative to tubulin
Protocol: (§6) The male C57BL/6 mice at the age of 6 weeks were divided into 5 groups for 8 mice in each group. The each group of mice were feed at 24±2° C. of temperature, humidity of 55±10% and 12/12 light cycle for 8 weeks, wherein the group 1 was control group on a normal diet (PMI Nutrition International, Brentwood, Mo., USA) and injected 0.9% saline intraperitoneally; the group 2 was fed high-fat diet to induce the mice into heart hypertrophy model and injected 0.9% saline intraperitoneally; the group 3 was fed high-fat diet and SEQ ID NO.:1 peptide was injected intraperitoneally with the dose of 5 mg/kg/day; the group 4 was fed high-fat diet and SEQ ID NO.:1 peptide was injected intraperitoneally with the dose of 10 mg/kg/day; the group 5 was fed high-fat diet and SEQ ID NO.:1 peptide was injected intraperitoneally with the dose of 25 mg/kg/day. […]
as §2
(§7) The protein extraction of the mice heart tissues from the each group in example 2 were processed by the western blot method in example 3 to observe the expressions of p38α protein and JNK. The results were shown at FIGS. 8 and 9, wherein the tubulin was used for an internal control in FIG. 8 and the expression levels of p38α protein and JNK were calculated basing on the expression level of tubulin in each figure of FIG. 9.

JNK = experiment: Western blot of JNK in heart tissue of high-fat diet mice; conditions: high-fat diet C57BL/6 mice, 5, 10 and 25 mg/kg/day intraperitoneally (groups 3 to 5) vs group 2 (high-fat diet, saline); relative to tubulin
Protocol: as §6, §2, §7

FGF-2 = experiment: Western blot of FGF-2 in heart tissue of high-fat diet mice; conditions: high-fat diet C57BL/6 mice, 5, 10 and 25 mg/kg/day intraperitoneally (groups 3 to 5) vs group 2 (high-fat diet, saline); relative to tubulin
Protocol: as §1, §2
(§8) The protein extraction of the mice heart tissues from the each group in example 2 were processed by the western blot method in example 3 to observe the expressions of the related proteins of cardiac fibrosis pathway including: FGF-2, ERK-1, UPA, MMP-2 and MMP-9. The results were shown at FIGS. 10 and 11, wherein the tubulin was used for an internal control in FIG. 10 and the expression levels of FGF-2, ERK-1, UPA, MMP-2 and MMP-9 in the mice heart tissues from the each group was calculated basing on the expression level of tubulin in each figures of FIG. 11.

ERK-1 = experiment: Western blot of ERK-1 in heart tissue of high-fat diet mice; conditions: high-fat diet C57BL/6 mice, 5, 10 and 25 mg/kg/day intraperitoneally (groups 3 to 5) vs group 2 (high-fat diet, saline); relative to tubulin
Protocol: as §1, §2, §8

UPA = experiment: Western blot of UPA in heart tissue of high-fat diet mice; conditions: high-fat diet C57BL/6 mice, 5, 10 and 25 mg/kg/day intraperitoneally (groups 3 to 5) vs group 2 (high-fat diet, saline); relative to tubulin
Protocol: as §1, §2, §8

MMP-2 = experiment: Western blot of MMP-2 in heart tissue of high-fat diet mice; conditions: high-fat diet C57BL/6 mice, 5, 10 and 25 mg/kg/day intraperitoneally (groups 3 to 5) vs group 2 (high-fat diet, saline); relative to tubulin
Protocol: as §1, §2, §8

MMP-9 = experiment: Western blot of MMP-9 in heart tissue of high-fat diet mice; conditions: high-fat diet C57BL/6 mice, 5, 10 and 25 mg/kg/day intraperitoneally (groups 3 to 5) vs group 2 (high-fat diet, saline); relative to tubulin
Protocol: as §1, §2, §8

ANP = experiment: Western blot of ANP in heart tissue of high-fat diet mice; conditions: high-fat diet C57BL/6 mice, 5, 10 and 25 mg/kg/day intraperitoneally (groups 3 to 5) vs group 2 (high-fat diet, saline); relative to tubulin
Protocol: as §1, §2
(§9) The protein extraction of the mice heart tissues from the each group in example 2 were processed by the western blot method in example 3 to observe the expressions of the indicator of heart hypertrophy and heart failure. The results were shown at FIGS. 12 and 13, wherein the tubulin was used for an internal control in FIG. 12 and the expression levels of the ANP and BNP in the mice heart tissues from the each group was calculated basing on the expression level of tubulin in each figures of FIG. 13.

BNP = experiment: Western blot of BNP in heart tissue of high-fat diet mice; conditions: high-fat diet C57BL/6 mice, 5, 10 and 25 mg/kg/day intraperitoneally (groups 3 to 5) vs group 2 (high-fat diet, saline); relative to tubulin
Protocol: as §1, §2, §9

myocardial cells = experiment: H&E stained section of heart tissues of high-fat diet mice; conditions: 15 and 25 mg/kg/day intraperitoneally (groups 3 and 4) vs group 2 (high-fat diet, saline)
Protocol: The male C57BL/6 mice at the age of 6 weeks were divided into 5 groups for 8 mice in each group. The each group of mice were feed at 24±2° C. of temperature, humidity of 55±10% and 12/12 light cycle for 8 weeks, wherein the group 1 was control group on a normal diet (PMI Nutrition International, Brentwood, Mo., USA) and injected 0.9% saline intraperitoneally; the group 2 was fed high-fat diet to induce the mice into heart hypertrophy model and injected 0.9% saline intraperitoneally; the group 3 was fed high-fat diet and SEQ ID NO.:1 peptide was injected intraperitoneally with the dose of 5 mg/kg/day; the group 4 was fed high-fat diet and SEQ ID NO.:1 peptide was injected intraperitoneally with the dose of 10 mg/kg/day; the group 5 was fed high-fat diet and SEQ ID NO.:1 peptide was injected intraperitoneally with the dose of 25 mg/kg/day. The injection period of each group of mice was between the third week to the sixth week of feeding period. The high-fat diet contained 60% of energy as fat.
The feeding method was the same with example 1. Mice were divided into 4 groups for feeding at different conditions. The intraperitoneal injection was performed between the third week and the sixth week of the feeding period. […]

Substance: SEQ ID NO.:1 peptide: isolated peptide which amino acid sequence is SEQ ID NO.: 1; extracted from organisms, separated by hydrolysis or chemical synthesis (VHVV)
- expression level of Bcl-2 in the heart cell (Bcl-2 protein): obviously increased
- expression level of cytochrome C in the heart cell (cytochrome C): obviously decreased
- expression level of activated caspase-3 in the heart cell (caspase-3): obviously decreased
- expression level of NFTA-C3 in the heart cells [1]: obviously decreased
- expression level of calcineurin in the heart cells (calcineurin): obviously decreased
- expression level of STAT-3 in the heart tissues (STAT-3): obviously lower
- expression level of IL-6 in the heart tissues (IL-6): obviously lower
- expression level of MEK-5 in the heart tissues (MEK-5): obviously lower
- expression level of ERK-5 in the heart tissues (ERK-5): obviously lower
- expression level of p38α protein in the heart cells (p38α protein): significantly lower
- expression level of JNK in the heart cells (JNK): significantly lower
- expression level of FGF-2 (related protein of cardiac fibrosis pathway) in heart tissues (FGF-2): obviously lower
- expression level of ERK-1 (related protein of cardiac fibrosis pathway) in heart tissues (ERK-1): obviously lower
- expression level of UPA (related protein of cardiac fibrosis pathway) in heart tissues (UPA): obviously lower
- expression level of MMP-2 (related protein of cardiac fibrosis pathway) in heart tissues (MMP-2): obviously lower
- expression level of MMP-9 (related protein of cardiac fibrosis pathway) in heart tissues (MMP-9): obviously lower
- expression level of ANP in the heart tissues (ANP): obviously decreased
- expression level of BNP in the heart tissues (BNP): obviously decreased
- arrangement of myocardial cells in H&E stained heart sections (myocardial cells): more orderly and closely and has normal structure of heart muscles
